# Columns and labels:
# [1] = Anthocyanin survival of control treatments at pH 2.5 (uHPLC AUC 500-520 nm); type: physicochemical; conditions: pH 2.5 acidified water, no pyruvic acid, 25° C., day 31
# Experimental: FIG. 10: Pyranoanthocyanin yield for anthocyanins (500 μM) subjected to pyruvic acid treatment (×100 M ratio) and anthocyanin survival of control treatments at pH 2.5 acidified water at day 7, 14, and 31. Yield defined as (AUC500-520 nm of PACN at tn/AUC500-520 nm of ACN @t0)*100. Survival defined as (AUC500-520 nm of ACN at tn/AUC500-520 nm of ACN @ t0)*100. Values shown are means (n=3) and bars represent standard deviation.
# A uHPLC system (Shimadzu Nexera-i LC-2040C, Maryland, U.S.) coupled with tandem MS (Shimadzu LCMS-8040, Maryland, U.S.) was used in evaluating initial anthocyanin purity and monitoring changes in anthocyanins with and without pyruvic acid treatment over time. A 0.4 mL/min flow rate was used on a Pinnacle DB (Restek Corporation, Bellefonte, Pa.) C18 Column (1.9 μm particle size, 50×2.1 mm length). The column oven was set at 40° C. The following gradient of solvent A (4.5% formic acid) and B (100% acetonitrile) was used: 0% B for the first minute, ramped to 15% B by 10 min. This method was effective for separation of the formed pyranoanthocyanin from anthocyanin for all isolates except cy3rut which coeluted with the formed pyranoanthocyanin. This was observed through MS-MS data. […]
# Quantification of pigments was conducted on day 0, 3, 7, 14, and 31 using a standard curve of cyanidin-3-glucoside (Sigma Aldrich, St. Louis, Mo., U.S.) run under the same conditions used for isolates. Molar absorptivities of anthocyanins and carboxypyranoanthocyanidins have been reported as being relatively similar and were thought to provide a basis of confidence in using AUC500-520 nm as a quantitative measure of pyranoanthocyanin yield.
# Prior to dilution, the concentrations of the isolated pigment extracts were determined by the pH differential method for subsequent dilution to known concentrations. The isolates were then diluted to 500 μM (expressed as Cyanidin-3-glucoside equivalents) in pH 2.5 deionized water (previously adjusted with HCl) which contained 0.1% potassium sorbate (w/v) and 0.1% sodium benzoate (w/v) to function as preservative agents during storage. […]
# [2] = UV-Vis absorbance loss and first-order bleaching kinetics of pigment solutions with ascorbic acid (pH 3.0 citrate buffer, 25° C., dark); type: physicochemical; conditions: for K (reaction rate, first-order) / t1/2: 25° C. dark
# Experimental: The semi-purified chokeberry extract, the isolated cyanidin-3-galactoside, and the purified 5-carboxypyranocyanidin-3-galactoside were diluted in pH 3.0 citrate buffer (0.1 M adjusted with HCl) until an absorbance of 1.0 at their respective λmax was reached. Levels of AA of 250, 500, and 1000 mg/L were added using a concentrated ascorbic acid stock solution, and a control consisting of each pigment with the absence of AA was maintained. The control consisted of the pigment in the buffer in the absence of AA. An additional test was performed with the same model juice using hydrogen peroxide, a known degradation product of AA. To determine if AA bleaching was due to formation of H2O2, direct addition of it was investigated. In place of added AA, a 62.2 μL of a 0.3% peroxide solution was added to match the molar equivalency of the 500 mg/L AA level, which was 2.84 mM. All samples were brought to the same final volume with additional citrate buffer. […] Samples were stored in the dark at 25° C. in an incubator. UV-Vis spectrophotometry, colorimetry, and HPLC analyses were conducted over a 5 day period following the addition of ascorbic acid or hydrogen peroxide. UV-Vis spectral data was collected every hour for the first 8 hours, and then at 12 hr, and daily from that point on for 5 days. […] HPLC analyses were conducted on days 0, 1, 3, and 5. All treatments were run in triplicate. A SpectraMax 190 Microplate Reader (Molecular Devices, Sunnyvale, Calif., U.S.) with a 96-well plate (poly-D-lysine coated polystyrene) were used for the evaluation of absorbance from 380-700 nm, 1 nm intervals. Aliquots (200 uL) of samples were loaded into individual wells, and a blank consisted of the same citrate buffer used. Because of the rapid nature of AA-induced color loss, degradation kinetics were evaluated in terms of change in maximum absorbance at the original λmax over time. Bleaching is a first-order reaction, typical of ACN degradation, and was modeled as such in determining the reaction rate and half-life. The decrease in maximum absorbance correlated with an increase in lightness (L*) as well as the decrease in chroma (c*). The reduction in maximum absorbance did closely follow first-order kinetics for chokeberry extract and cyanidin-3-galactoside but slightly deviated for 5-carboxypyranocyanidin-3-galactoside. […] The kinetics results for each pigment and AA level can be found in Table 3 below.
compound,measurement,setting,value
"OC[C@H]1O[C@@H](Oc2cc3c(O)cc(O)cc3[o+]c2-c2ccc(O)c(O)c2)[C@H](O)[C@@H](O)[C@H]1O [Cyanidin-3-galactoside, cyanidin-3-galactoside]",anthocyanin survival of control treatment,[1],84%
same,"K (reaction rate, first-order)",[2]; 250 mg/L AA,3.18E−02
same,t1/2,[2]; 250 mg/L AA,22 h
same,reduction in maximum absorbance,"[2]; 500 mg/L AA, 5 day period",88%
same,λmax after hypsochromic change,"[2]; 500 mg/L AA, after treatment",509 nm
same,λmax before hypsochromic change,"[2]; 500 mg/L AA, start",511 nm
same,"K (reaction rate, first-order)",[2]; 500 mg/L AA,5.90E−02
same,t1/2,[2]; 500 mg/L AA,12 h
same,"K (reaction rate, first-order)",[2]; 1000 mg/L AA,8.64E−02
same,t1/2,[2]; 1000 mg/L AA,8 h
same,"slope of reaction rate vs AA level (susceptibility to AA), relative to 5-carboxypyranocyanidin-3-galactoside",[2]; AA 0-1000 mg/L,8.2 ×
same,"slope of reaction rate vs AA level, relative to chokeberry extract",[2]; AA 0-1000 mg/L,3.1 ×
same,t1/2,"[2]; Control, no AA",546 h
same,"K (reaction rate, first-order)","[2]; Control, no AA, absorbance at λvis-max",1.27E−03
same,time before a significant difference (p<0.05) in maximum absorbance from time 0,[2]; all levels of AA added,2 h
